Source: paper PMC3764824, “Base-modified Donor Analogues Reveal Novel Dynamic Features of a Glycosyltransferase” (The Journal of Biological Chemistry, 2013)
Blank lines part the entries; values can stand above or below the molecule they belong to.

What was measured:
[1] = molecular target: T1, AAGlyB (GTA-L266G/G268A) (Homo sapiens, UniProt P16442, G268A/L266G); test: radiochemical Sep-Pak assay, Dixon plot; format: biochemical; details: read-out: 2
T1 construct: gene ABO; soluble catalytic domain, N-terminally truncated (forward primer MIN2 encodes MVSLPRMVYPQP; C-terminus ...NP at residue 354), made in E. coli BL21-gold from pCWdeltalac; SP-Sepharose and UDP-hexanolamine-Sepharose; residues 58-354 stated ordered in UDP-HAA crystal
T1 sequence (P16442 64-354 L266G/G268A): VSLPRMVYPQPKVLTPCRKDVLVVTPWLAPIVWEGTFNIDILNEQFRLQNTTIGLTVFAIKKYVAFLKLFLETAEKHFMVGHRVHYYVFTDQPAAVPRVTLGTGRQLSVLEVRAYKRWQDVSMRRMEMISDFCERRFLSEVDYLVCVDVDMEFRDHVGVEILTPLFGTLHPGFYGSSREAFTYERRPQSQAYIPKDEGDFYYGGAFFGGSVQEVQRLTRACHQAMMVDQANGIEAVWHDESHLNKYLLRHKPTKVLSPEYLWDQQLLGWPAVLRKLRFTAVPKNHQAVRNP
Text: radiochemical Sep-Pak assay, Dixon plot on AAGlyB (GTA-L266G/G268A)

[2] = molecular target: T2, AAGlyB (GTA-L266G/G268A) (Homo sapiens, UniProt P16442, L266G/G268A); test: capillary electrophoresis with LIF detection; format: biochemical; details: labelled compound; co-substrate compound 2 (33.3 μM), CE assay, 20 mM MnCl2, MOPS pH 7.0, 37 °C
T2 construct: gene ABO; soluble catalytic domain, N-terminally truncated (forward primer MIN2 encodes MVSLPRMVYPQP; C-terminus ...NP at residue 354), made in E. coli BL21-gold from pCWdeltalac; SP-Sepharose and UDP-hexanolamine-Sepharose; residues 58-354 stated ordered in UDP-HAA crystal
T2 sequence (P16442 64-354 L266G/G268A): T1 sequence (P16442 64-354 L266G/G268A)
Text: (§1) capillary electrophoresis with LIF detection on AAGlyB (GTA-L266G/G268A)

[3] = molecular target: T2, AAGlyB (GTA-L266G/G268A); test: X-ray crystallography ([…] Å); format: binding; details: ternary complex with HAA; UDP carried over from purification
[4] = substrate: O=c1[nH]c(=O)n([C@@H]2O[C@H](COP(=O)(O)OP(=O)(O)O[C@H]3O[C@H](CO)[C@H](O)[C@H](O)[C@H]3O)[C@@H](O)[C@H]2O)cc1-c1ccccc1; test: capillary electrophoresis with LIF detection; format: biochemical, Homo sapiens; details: 50 μM tetramethylrhodamine-labeled HAA, 20 mM MnCl2, 50 mM MOPS pH 7.0, 37 °C
Text: as §1

Ki [1]: 3 µM
Molecule: O=c1[nH]c(=O)n([C@@H]2O[C@H](COP(=O)(O)OP(=O)(O)O[C@H]3O[C@H](CO)[C@H](O)[C@H](O)[C@H]3O)[C@@H](O)[C@H]2O)cc1-c1ccccc1 [compound 2, UDP-Gal derivative 2]

Km [2]: 56 ± 3 µM
Molecule: α-Fucp-(1→2)-β-Galp-O-(CH2)8CONH(CH2)2NH-CO-tetramethylrhodamine

Molecule: O=c1ccn([C@@H]2O[C@H](COP(=O)(O)OP(=O)(O)O)[C@@H](O)[C@H]2O)c(=O)[nH]1 [UDP]
X-ray crystallography (1.8 Å) [3]: The AAGlyB-UDP-HAA structure shows very well defined electron density

B1: AAGlyB (GTA-L266G/G268A) (Homo sapiens; G268A/L266G) (protein)
chain: T1 sequence (P16442 64-354 L266G/G268A)
notes: soluble catalytic domain, N-terminally truncated (forward primer MIN2 encodes …; C-terminus ...NP at residue 354), made in E. coli BL21-gold from pCWdeltalac; SP-Sepharose and UDP-hexanolamine-Sepharose; residues 58-354 stated ordered in UDP-HAA crystal
Km [4]: 6.5 ± 0.5 µM
kcat [4]: 0.006 ± 0.0008 s⁻¹
